Measured values: the supplement of paper PMC10307832

Columns and labels:
Experiment in all cases: relative viability (nuclei count vs DMSO), 5 days (fraction); higher = more cells survive
[1] = compound: NCC(=O)Nc1ccc(-n2nc(C(F)(F)F)cc2-c2ccc3c(ccc4ccccc43)c2)cc1 + C[C@@H](Oc1cc(-c2cnn(C3CCNCC3)c2)cnc1N)c1c(Cl)ccc(F)c1Cl [Crizotinib] (partner 1 µM)
How it was run: (§1)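 Dosing by pin tool came one day after lung cancer cell lines were seeded in 1536-well plates, using either one drug or a fixed anchor-drug dose plus five library-drug doses (not always all listed) in √10 steps. After 5 days, nuclei were counted on 4× images. Relative viability is treated-well nuclei count divided by vehicle-well nuclei count, and values are medians of duplicate plates.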

[2] = compound: NCC(=O)Nc1ccc(-n2nc(C(F)(F)F)cc2-c2ccc3c(ccc4ccccc43)c2)cc1 + Cc1nc(NC(=O)N2CCC[C@H]2C(N)=O)sc1-c1ccnc(C(C)(C)C(F)(F)F)c1 [Alpelisib] (partner 2 µM)
How it was run: as §1

[3] = compound: C1CSC2=C(C(=O)N1)SC3=C2C=C(C=C3)O [kb NB 142-70] + O=C(CCCCCCC(=O)Nc1ccccc1)NO [Vorinostat] (partner 1 µM)
How it was run: as §1

kb NB 142-70 + AZD7762 = compound: C1CSC2=C(C(=O)N1)SC3=C2C=C(C=C3)O [kb NB 142-70] + NC(=O)Nc1cc(-c2cccc(F)c2)sc1C(=O)N[C@H]1CCCNC1 [AZD7762] (partner 0.2 µM)
How it was run: as §1

Row | Cell Line | relative viability ([1]; first compound 0.02 µM) | relative viability ([1]; first compound 0.06325 µM) | relative viability ([1]; first compound 0.2 µM) | relative viability ([1]; first compound 0.6325 µM) | relative viability ([1]; first compound 2 µM) | relative viability ([2]; first compound 0.02 µM) | relative viability ([2]; first compound 0.06325 µM) | relative viability ([2]; first compound 0.2 µM) | relative viability ([2]; first compound 0.6325 µM) | relative viability ([2]; first compound 2 µM) | relative viability ([3]; first compound 0.1 µM) | relative viability ([3]; first compound 1 µM) | relative viability ([3]; first compound 3.162 µM) | relative viability (kb NB 142-70 + AZD7762; first compound 0.1 µM) | relative viability (kb NB 142-70 + AZD7762; first compound 1 µM) | relative viability (kb NB 142-70 + AZD7762; first compound 3.162 µM)
1 | IA-LM | 0.775 | 0.573 | 1.02 | 0.797 | 0.742 | 0.776 | 0.715 | 0.937 | 0.784 | 0.782 | 0.957 | 0.994 | 1.16 |  |  | 
2 | LC-2-ad | 0.463 | 0.543 | 0.433 | 0.47 | 0.389 | 1.07 | 0.947 | 0.945 | 0.883 | 0.959 | 0.726 | 0.698 | 0.71 | 0.826 | 0.825 | 0.888
3 | LCLC-97TM1 | 0.344 | 0.34 |  | 0.348 | 0.29 | 0.206 | 0.271 |  | 0.239 | 0.206 | 0.82 | 0.773 | 0.515 | 0.346 | 0.231 | 0.563
4 | LCLC-103H | 1.16 | 1.01 | 1.1 | 1.02 | 0.977 | 0.924 | 0.916 | 1.03 | 0.917 | 0.985 | 0.856 | 0.873 | 0.877 | 0.766 | 0.782 | 0.894
5 | LK-2 | 0.247 | 0.234 | 0.232 | 0.236 | 0.244 | 1.04 | 1.04 | 0.979 | 1.14 | 0.969 | 0.417 | 0.279 | 0.219 | 0.308 | 0.319 | 0.329
6 | LOU-NH91 | 0.725 | 0.761 | 0.754 | 0.565 | 0.756 | 0.789 | 0.788 | 0.702 | 0.775 | 0.799 | 0.915 | 0.913 | 0.601 | 0.767 | 0.762 | 0.637
7 | LU99A | 0.547 | 0.654 | 0.593 | 0.554 | 0.573 | 0.563 | 0.489 | 0.56 | 0.562 | 0.456 | 0.486 | 0.443 | 0.33 | 0.386 | 0.493 | 0.462
8 | NCI-H520 | 0.787 | 1.09 | 0.889 | 0.687 | 0.694 | 0.979 | 0.982 | 1.04 | 0.92 | 0.896 | 0.775 | 0.681 | 0.304 |  |  | 
9 | NCI-H522 |  |  |  |  |  |  |  |  |  |  | 0.983 | 0.835 | 0.794 | 0.959 | 0.753 | 0.746
10 | NCI-H661 | 1.16 | 0.905 | 1.11 |  | 1.01 | 0.82 | 0.626 | 0.693 | 0.758 | 0.94 | 0.761 | 0.755 | 0.767 |  |  | 
11 | NCI-H1299 | 0.97 | 0.969 | 0.991 | 0.944 | 1 | 1.05 | 1.11 | 1.09 | 1.08 | 1.03 |  |  |  |  |  | 
12 | NCI-H1395 |  |  |  |  |  | 1.04 | 1.1 | 1.3 | 1.13 | 1.05 | 0.7 | 0.748 | 0.701 | 0.4 | 0.428 | 0.501
13 | NCI-H1563 | 0.887 | 0.91 | 0.881 | 0.835 | 0.997 | 0.969 | 0.837 | 0.962 | 0.928 | 1.05 |  |  |  |  |  | 
14 | NCI-H1648 |  |  |  |  |  |  |  |  |  |  | 0.356 | 0.345 | 0.423 | 0.585 | 0.811 | 0.933
15 | NCI-H1650 | 1.11 | 1.14 | 0.836 | 1.08 | 1.19 |  |  |  |  |  | 0.656 | 0.569 | 0.425 |  |  | 
16 | NCI-H1703 | 0.593 | 0.657 | 0.924 | 0.621 | 0.951 | 0.377 | 0.306 | 0.343 | 0.353 | 0.385 |  |  |  | 0.125 | 0.134 | 0.134
17 | NCI-H1792 | 1.01 | 1.02 | 0.976 | 1 | 0.945 | 0.67 | 0.859 | 0.77 | 0.751 | 0.736 |  |  |  | 0.803 | 0.907 | 0.857
18 | NCI-H1793 |  |  |  |  |  | 0.682 | 0.734 | 0.72 | 0.666 | 0.736 | 0.807 | 1.02 | 0.654 | 0.6 | 0.667 | 0.615
19 | NCI-H2009 | 1.06 | 1.03 | 1.07 | 1.09 | 1.04 | 1.21 | 1.11 | 1.19 | 1.1 | 1.16 | 0.724 | 0.95 | 0.688 |  |  | 
20 | NCI-H2023 | 0.737 | 0.751 | 0.619 | 0.703 | 0.702 | 0.606 | 0.625 | 0.609 | 0.577 | 0.596 | 0.613 | 0.667 | 0.343 |  |  | 
21 | NCI-H2228 | 0.56 | 0.652 | 0.603 | 0.544 | 0.493 | 0.785 | 0.84 | 0.669 | 0.689 | 0.921 | 0.988 | 0.557 | 0.512 |  |  | 
22 | NCI-H2342 |  |  |  |  |  |  |  |  |  |  | 0.858 | 0.782 | 0.649 | 0.548 | 0.49 | 0.518
23 | SK-LU-1 | 0.854 | 0.949 | 1.11 | 0.831 | 1.03 | 0.913 | 1.08 | 1.3 | 0.891 | 0.977 | 0.831 | 0.642 | 0.371 |  |  | 
24 | SK-MES-1 | 1.04 | 0.994 | 1.04 | 0.979 | 1.03 | 1.02 | 0.981 | 0.925 | 0.816 | 0.919 | 1.09 | 1.21 | 0.567 |  |  | 
25 | SW 900 |  |  |  |  |  |  |  |  |  |  | 0.597 | 0.593 | 0.388 | 0.663 | 0.758 | 0.879
26 | SW 1573 | 0.756 | 0.756 | 0.837 | 0.848 | 0.911 | 0.782 | 0.741 | 0.807 | 0.75 | 0.765 | 0.655 | 0.426 | 0.327 |  |  | 
